The values below come from patent publication US12508245B2, “Co-therapies including a metastasis inhibitor” (priority 2017, dated 2025).

The structures appear in SMILES notation.

The nature of data set [1]: Pharmacokinetic study of Compound A in mice: stability of the plasma samples (LC-MS/MS). It counts as in vitro ADME. Particulars: mouse plasma samples, K2 EDTA. The procedure:
Concentrations of Compound A in plasma were determined using high performance liquid chromatography with tandem mass spectrometry (LC MS/MS). All blood samples were transferred into commercial tube containing Potassium (K2) EDTA and processed for plasma. Samples were centrifuged (3000×g for 10 minutes at 2 to 8° C.) within one hour of collection. The assays used a Sciex API 4000 detector and nifedipine as an internal standard. The calibration ranges for Compound A for were 5.00 to 5000 ng/mL. The plasma concentration of Compound A in mice was subjected to a non-compartmental pharmacokinetic analysis by using the Phoenix WinNonlin software (version 6.3, Pharsight, Mountain View, CA). The nominal dose levels and nominal sampling times were used in the calculation of all pharmacokinetic parameters. The linear/log trapezoidal rule was applied in obtaining the PK parameters.

For the next data set, the system named is MDA-MB-231 tumor cells. As to the kind of experiment: Overall survival of NSG mice implanted with MDA-MB-231 tumor cells, combination treatment with chemotherapy. The class given is in vivo, human. How it is done: Vehicle solvent was given to control mice once a day for 6 days every week. Starting on day 15, doxorubicin hydrochloride (Sigma) (2 mg/kg) and cyclophosphamide monohydrate (Sigma) (60 mg/kg) were given to mice once a week for four weeks. Primary tumors were removed on day 29. Death of mice was used as the endpoint.

For the next data set, the system named is 4T1 breast tumor cells. As to the kind of experiment: Combination treatment with Compound A and immunotherapy, 4T1 tumor-bearing BALB/c mice, overall survival. The class given is in vivo, mouse. The procedure:
Female BALB/c mice (6- to 8-week-old) were purchased from Charles River Laboratories. […] Mol Oncol 10, 966-980 (2016). Starting on day 8 or 22, Compound A was given to mice once every day for 5 days a week by oral gavage at 100 mg/kg per mouse. Tumor-bearing mice were given 10 mg/kg anti-PD-1 and 10 mg/kg anti-CTLA-4 antibodies i.p. on day 11, 13, 15, and 17 as previously described. Kim, K. et al. Eradication of metastatic mouse cancers resistant to immune checkpoint blockade by suppression of myeloid-derived cells. Proc Natl Acad Sci USA 111, 11774-11779 (2014). Control group mice were given control mouse IgG at the same time. Primary tumor volume was calculated as length×width^2×π/6.

Data set [2] relates to 4T1 mouse breast tumor cells.
Description: Female BALB/c mice (6-8 week old) were purchased from Charles River. 4T1 tumor cells (1×10^5) were injected subcutaneously into the abdominal mammary gland area of mice using 0.1 ml of a single-cell suspension in PBS on Day 0 as previously described. […] Starting on Day 8, when the tumors averaged about ˜4-5 mm in diameter, Compound A or control solvent were given once or twice every day by oral gavage at 10, 30, 100 or 300 mg/kg per mouse until Day 27. On Day 28, the mice were sacrificed. […] Numbers of metastatic 4T1 cells in lungs were determined by the clonogenic assay. In brief, lungs were removed from each mouse, finely minced and digested in 5 ml of enzyme cocktail containing 1×PBS and 1 mg/ml collagenase type IV for 2 hours at 37° C. on a platform rocker. After incubation, samples were filtered through 70-μm nylon cell strainers and washed twice with PBS. Resulting cells were suspended, plated with a series of dilutions in 10 cm tissue culture dishes in DMEM medium containing 60 μM thioguanine for clonogenic growth. As 4T1 tumor cells are resistant to 6-thioguanine, metastasized tumor cells formed foci after 14 days, at which time they were fixed with 4% paraformaldehyde and stained with crystal violet staining solution for counting. […]
Data set [3] deals with MDA-MB-231 human breast tumor cells.
Description: MDA-MB-231 cells (subclone LM2) (1×10^5) suspended in PBS were injected subcutaneously into the abdominal mammary gland area of mice on day 1 as previously described. […] On the first day of the ninth week, the mice were killed. […] Numbers of metastatic MDA-MB-231 cells in lungs were determined by the clonogenic assay. In brief, lungs were removed from each mouse once sacrificed, finely minced and digested in 5 ml of enzyme cocktail containing 1×PBS and 1 mg/ml collagenase type IV for 2 h at 37° C. on a platform rocker. After incubation, samples were filtered through 70-μm nylon cell strainers and washed twice with PBS. Resulting cells were suspended, plated with a series of dilutions in 10 cm tissue culture dishes in medium containing 2.0 μg/ml puromycin for clonogenic growth. As these MBA-MB-231 tumor cells were stably transfected with the vector pSuper-puro, metastasized tumor cells formed foci after 14 days, at which time they were fixed with 4% paraformaldehyde and stained with crystal violet staining solution for counting.

As to `Cc1occc1C(=O)Nc1nn(Cc2ccc(C(F)(F)F)cc2)c2ccccc12` [NP-G2-044], the “stability after freeze-thaw, and during storage, processing and analysis” value in data set [1] is recorded as “stable”. For the same molecule, the “overall survival of tumor-bearing mice” value with MDA-MB-231 tumor cells (NSG mice, MDA-MB-231, primary tumors removed on Day 29, NP-G2-044 started on Day 1, chemotherapy for 4 weeks, death as endpoint (FIG. 2b)) is “increases overall survival”; with 4T1 breast tumor cells (4T1 tumor-bearing mice, anti-PD-1 and anti-CTLA-4 antibodies, death as endpoint (FIG. 3c)), “increased the overall survival”. Also, the “overall survival in the combination therapies, earlier versus late start of NP-G2-044” value in the data set with MDA-MB-231 tumor cells (with chemotherapy, NP-G2-044 starting on day 1 or 8 compared with day 15 (FIG. 2d)) is on record as “had better effect than late treatment”. Further, in the data set on 4T1 breast tumor cells (NP-G2-044 starting on day 8, with anti-PD-1 and anti-CTLA-4 antibodies (FIG. 3e)), the “immunotherapy response (overall survival) in combination therapy, early treatment” value is on record as “boosted the immunotherapy response”. The “immunotherapy response (overall survival) in combination therapy, late treatment” value with 4T1 breast tumor cells (NP-G2-044 starting on day 22, with anti-PD-1 and anti-CTLA-4 antibodies (FIG. 3e)) is “boosted the immunotherapy response”. The “metastasis to the lung, single agent” value in data set [2] (4T1 cells implanted into the mammary fat pad (FIG. 1f-g)) is recorded as “blocks tumor metastasis”; in data set [3] (MDA-MB-231 cells implanted into the mammary fat pad, QD or BID (FIG. 1c-e)) it was “blocks tumor metastasis”. Besides, the “tolerability of the dosage regimen” value is given as “well tolerated with no signs of overt toxicity” in data set [2] (mouse, in vivo) and “well tolerated with no signs of overt toxicity” in data set [3] (in vivo).
